Reference: ChEMBL document CHEMBL4229569, “Structure-Based Design of 1-Heteroaryl-1,3-propanediamine Derivatives as a Novel Series of CC-Chemokine Receptor 5 Antagonists” (J Med Chem, 2018)
One block for each compound: values may come before it.

How the values were obtained:
[1] = molecular target: Voltage-gated inwardly rectifying potassium channel KCNH2 (Homo sapiens, UniProt Q12809); test: Inhibition of human ERG expressed in CHO cells at holding potential of -80 mV after 60 secs by patch clamp assay; format: cell-based
[2] = tested on: Human immunodeficiency virus 1; test: microbe, parasite or virus in culture; settings: Human immunodeficiency virus 1, Ba-L, PM1, 120 h
Description: Antiviral activity against CCR5-dependent HIV1 Ba-L infected in human PM1 cells assessed as reduction in virus infection measured after 5 days by luciferase reporter gene assay

[3] = Cmax in Sprague-Dawley rat at 10 mg/kg, iv by LC-MS/MS analysis; format: ADME, organism-based; parameters: dose 10 mg/kg, route intravenous; settings: in vivo
[4] = molecular target: T1, Cytochrome P450 1A2 (Homo sapiens, UniProt P05177); test: Inhibition of CYP1A2 (unknown origin); format: ADME
T1 sequence (P05177 whole entry): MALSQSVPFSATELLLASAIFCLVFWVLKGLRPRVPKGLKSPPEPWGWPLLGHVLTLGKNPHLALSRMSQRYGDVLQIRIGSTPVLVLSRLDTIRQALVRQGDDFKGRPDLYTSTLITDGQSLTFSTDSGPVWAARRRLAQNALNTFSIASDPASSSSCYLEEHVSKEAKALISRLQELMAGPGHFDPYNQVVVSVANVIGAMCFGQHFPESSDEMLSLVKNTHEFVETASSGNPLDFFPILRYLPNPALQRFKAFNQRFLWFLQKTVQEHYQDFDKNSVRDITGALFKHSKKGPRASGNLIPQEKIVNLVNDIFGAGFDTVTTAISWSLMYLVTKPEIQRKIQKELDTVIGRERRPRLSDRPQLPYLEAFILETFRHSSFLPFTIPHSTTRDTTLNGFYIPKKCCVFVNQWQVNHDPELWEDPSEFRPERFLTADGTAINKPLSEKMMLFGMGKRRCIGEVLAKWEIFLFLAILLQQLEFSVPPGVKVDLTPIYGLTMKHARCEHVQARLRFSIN

[5] = tested on: Hepatocyte; test: Metabolic stability in rat hepatocytes assessed as compound remaining by UPLC/Q-TOF mass spectrometric analysis; format: ADME, cell-based
[6] = Clearance in dog at 3 mg/kg, iv by LC-MS/MS analysis; format: ADME, organism-based, Canis lupus familiaris; settings: in vivo
[7] = Half life in dog at 15 mg/kg, po by LC-MS/MS analysis; format: ADME, organism-based, Canis lupus familiaris; settings: in vivo
[8] = tested on: Human immunodeficiency virus 1; test: microbe, parasite or virus in culture; settings: Human immunodeficiency virus 1, SF162, HOS, 120 h
Description: Antiviral activity against CCR5-dependent HIV1 SF162 infected in human HOS cells assessed as reduction in virus infection measured after 5 days by luciferase reporter gene assay

[9] = Cmax in Sprague-Dawley rat at 20 mg/kg, po by LC-MS/MS analysis; format: ADME, organism-based; parameters: dose 20 mg/kg, route oral; settings: in vivo
[10] = MRT in dog at 3 mg/kg, iv by LC-MS/MS analysis; format: ADME, organism-based, Canis lupus familiaris; settings: in vivo
[11] = tested on: Hepatocyte; test: Metabolic stability in human hepatocytes assessed as compound remaining by UPLC/Q-TOF mass spectrometric analysis; format: ADME, cell-based
[12] = AUC (0 to infinity) in dog at 3 mg/kg, iv by LC-MS/MS analysis; format: ADME, organism-based, Canis lupus familiaris; parameters: dose 3 mg/kg, route intravenous, time infinity; settings: in vivo
[13] = molecular target: T2, Cytochrome P450 3A4 (Homo sapiens, UniProt P08684); test: Inhibition of CYP3A4 (unknown origin) using midazolam as substrate; format: ADME
[14] = Cmax in dog at 15 mg/kg, po by LC-MS/MS analysis; format: ADME, organism-based, Canis lupus familiaris; parameters: dose 15 mg/kg, route oral; settings: in vivo
[15] = molecular target: C-C chemokine receptor type 5 (Homo sapiens, UniProt P51681); test: Antagonist activity at CCR5 (unknown origin) expressed in HEK293 cells co-expressing Galpha16 assessed as inhibition of RANTES-induced calcium flux preincubated for 10 mins followed by RANTES addition by fluo-4AM-based fluorescence assay; format: functional, cell-based
[16] = Oral bioavailability in Sprague-Dawley rat at 20 mg/kg by LC-MS/MS analysis; format: ADME, organism-based; settings: in vivo
[17] = tested on: Hepatocyte; test: Metabolic stability in dog hepatocytes assessed as compound remaining by UPLC/Q-TOF mass spectrometric analysis; format: ADME, cell-based, Canis lupus familiaris
[18] = in vitro; settings: human, PM1 cells
Description: Therapeutic index, ratio of CC50 for human PM1 cells to IC50 for CCR5-dependent HIV1 Ba-L infected in human PM1 cells

[19] = tested on: Human immunodeficiency virus 1; test: microbe, parasite or virus in culture; settings: Human immunodeficiency virus 1, SF162, PBMC, 168 h
Description: Antiviral activity against CCR5-dependent HIV1 SF162 infected in human PBMC assessed as reduction in virus infection measured after 7 days by luciferase reporter gene assay

[20] = tested on: Human immunodeficiency virus 1; test: microbe, parasite or virus in culture; settings: Human immunodeficiency virus 1, SF162, TZM-bl, 48 h
Description: Antiviral activity against CCR5-dependent HIV1 SF162 infected in human TZM-bl cells assessed as reduction in virus infection measured after 48 hrs post infection by luciferase reporter gene assay

[21] = molecular target: Cytochrome P450 2C19 (Homo sapiens, UniProt P33261); test: Inhibition of CYP2C19 (unknown origin); format: ADME
[22] = in vitro; settings: human, PBMC
Description: Therapeutic index, ratio of CC50 for human PBMC to IC50 for CCR5-dependent HIV1 SF162 infected in human PBMC cells

[23] = in vitro; settings: human, HOS cells
Description: Therapeutic index, ratio of CC50 for human HOS cells to IC50 for CCR5-dependent HIV1 SF162 infected in human HOS cells

[24] = tested on: Human immunodeficiency virus 1; test: microbe, parasite or virus in culture; settings: Human immunodeficiency virus 1, Ba-L, HOS, 120 h
Description: Antiviral activity against CCR5-dependent HIV1 Ba-L infected in human HOS cells assessed as reduction in virus infection measured after 5 days by luciferase reporter gene assay

[25] = tested on: Human immunodeficiency virus 1; test: microbe, parasite or virus in culture; settings: Human immunodeficiency virus 1, KM018, PBMC, 168 h
Description: Antiviral activity against CCR5-dependent HIV1 KM018 infected in human PBMC assessed as reduction in virus infection measured after 7 days by luciferase reporter gene assay

[26] = Half life in dog at 3 mg/kg, iv by LC-MS/MS analysis; format: ADME, organism-based, Canis lupus familiaris; settings: in vivo
[27] = Tmax in Sprague-Dawley rat at 10 mg/kg, iv by LC-MS/MS analysis; format: ADME, organism-based; settings: in vivo
[28] = Tmax in dog at 15 mg/kg, po by LC-MS/MS analysis; format: ADME, organism-based, Canis lupus familiaris; settings: in vivo
[29] = tested on: Hepatocyte; test: Metabolic stability in monkey hepatocytes assessed as compound remaining by UPLC/Q-TOF mass spectrometric analysis; format: ADME, cell-based, Macaca mulatta; settings: rhesus monkey
[30] = Cytotoxicity against human TZM-bl cells after 48 hrs by MTT assay; format: cell-based
[31] = AUC (0 to infinity) in dog at 15 mg/kg, po by LC-MS/MS analysis; format: ADME, organism-based, Canis lupus familiaris; parameters: dose 15 mg/kg, time infinity, route oral; settings: in vivo
[32] = Half life in Sprague-Dawley rat at 20 mg/kg, po by LC-MS/MS analysis; format: ADME, organism-based; settings: in vivo
[33] = Tmax in Sprague-Dawley rat at 20 mg/kg, po by LC-MS/MS analysis; format: ADME, organism-based; settings: in vivo
[34] = Half life in Sprague-Dawley rat at 10 mg/kg, iv by LC-MS/MS analysis; format: ADME, organism-based; settings: in vivo
[35] = AUC (0 to infinity) in Sprague-Dawley rat at 20 mg/kg, po by LC-MS/MS analysis; format: ADME, organism-based; parameters: dose 20 mg/kg, route oral, time infinity; settings: in vivo
[36] = in vitro; settings: human, PBMC; remark: listed apart in the source
Description: Therapeutic index, ratio of CC50 for human PBMC to IC50 for CCR5-dependent HIV1 Ba-L infected in human PBMC

[37] = in vitro; settings: human, PBMC; remark: listed apart in the source
Description: Therapeutic index, ratio of CC50 for human PBMC to IC50 for CCR5-dependent HIV1 KM018 infected in human PBMC

[38] = AUC (0 to infinity) in Sprague-Dawley rat at 10 mg/kg, iv by LC-MS/MS analysis; format: ADME, organism-based; parameters: dose 10 mg/kg, time infinity, route intravenous; settings: in vivo
[39] = molecular target: T2, Cytochrome P450 3A4; test: Inhibition of CYP3A4 (unknown origin) using testosterone as substrate; format: ADME
[40] = tested on: Human immunodeficiency virus 1; test: microbe, parasite or virus in culture; settings: Human immunodeficiency virus 1, Ba-L, PBMC, 168 h
Description: Antiviral activity against CCR5-dependent HIV1 Ba-L infected in human PBMC assessed as reduction in virus infection measured 7 days by luciferase reporter gene assay

[41] = tested on: Rattus norvegicus; test: Toxicity in rat assessed as mortality at 2000 mg/kg, po administered as single dose and measured during 14 days observation period; format: organism-based; settings: in vivo, 336 h
[42] = MRT in Sprague-Dawley rat at 10 mg/kg, iv by LC-MS/MS analysis; format: ADME, organism-based; settings: in vivo
[43] = MRT in Sprague-Dawley rat at 20 mg/kg, po by LC-MS/MS analysis; format: ADME, organism-based; settings: in vivo
[44] = in vitro; settings: human, HOS cells; remark: listed apart in the source
Description: Therapeutic index, ratio of CC50 for human HOS cells to IC50 for CCR5-dependent HIV1 Ba-L infected in human HOS cells

[45] = molecular target: Cytochrome P450 2C9 (Homo sapiens, UniProt P11712); test: Inhibition of CYP2C9 (unknown origin); format: ADME
[46] = molecular target: Cytochrome P450 2D6 (Homo sapiens, UniProt P10635); test: Inhibition of CYP2D6 (unknown origin); format: ADME
[47] = MRT in dog at 15 mg/kg, po by LC-MS/MS analysis; format: ADME, organism-based, Canis lupus familiaris; settings: in vivo
[48] = tested on: Canis familiaris; test: Toxicity in po dosed dog assessed as drug tolerability administered as single dose; format: organism-based, Canis lupus familiaris; settings: in vivo
[49] = in vitro; settings: human, TZM-bl cells
Description: Therapeutic index, ratio of CC50 for human TZM-bl cells to EC50 for CCR5-dependent HIV1 SF162 infected in human TZM-bl cells

[50] = Clearance in Sprague-Dawley rat at 10 mg/kg, iv by LC-MS/MS analysis; format: ADME, organism-based; settings: in vivo
[51] = Oral bioavailability in dog at 15 mg/kg by LC-MS/MS analysis; format: ADME, organism-based, Canis lupus familiaris; settings: in vivo
[52] = tested on: Canis familiaris; test: AUC (0 to infinity) in dog at 2 mg/kg, po by LC-MS/MS analysis; format: ADME, organism-based, Canis lupus familiaris; parameters: dose 2 mg/kg, route oral, time infinity; settings: in vivo
[53] = AUC in rat at 10 mg/kg, po administered as single dose; format: ADME, organism-based; settings: in vivo
[54] = Tmax in dog at 2 mg/kg, po by LC-MS/MS analysis; format: ADME, organism-based, Canis lupus familiaris; settings: in vivo
[55] = tested on: Rattus norvegicus; test: Tmax in Sprague-Dawley rat at 10 mg/kg, po by LC-MS/MS analysis; format: ADME, organism-based; settings: in vivo
[56] = Cmax in dog at 2 mg/kg, po by LC-MS/MS analysis; format: ADME, organism-based, Canis lupus familiaris; parameters: dose 2 mg/kg, route oral; settings: in vivo
[57] = Cmax in Sprague-Dawley rat at 10 mg/kg, po by LC-MS/MS analysis; format: ADME, organism-based; parameters: dose 10 mg/kg, route oral; settings: in vivo
[58] = tested on: Canis familiaris; test: Clearance in dog at 0.5 mg/kg, iv by LC-MS/MS analysis; format: ADME, organism-based, Canis lupus familiaris; settings: in vivo
[59] = tested on: Canis familiaris; test: Oral bioavailability in dog at 2 mg/kg by LC-MS/MS analysis; format: ADME, organism-based, Canis lupus familiaris; settings: in vivo

T2 sequence (P08684 whole entry): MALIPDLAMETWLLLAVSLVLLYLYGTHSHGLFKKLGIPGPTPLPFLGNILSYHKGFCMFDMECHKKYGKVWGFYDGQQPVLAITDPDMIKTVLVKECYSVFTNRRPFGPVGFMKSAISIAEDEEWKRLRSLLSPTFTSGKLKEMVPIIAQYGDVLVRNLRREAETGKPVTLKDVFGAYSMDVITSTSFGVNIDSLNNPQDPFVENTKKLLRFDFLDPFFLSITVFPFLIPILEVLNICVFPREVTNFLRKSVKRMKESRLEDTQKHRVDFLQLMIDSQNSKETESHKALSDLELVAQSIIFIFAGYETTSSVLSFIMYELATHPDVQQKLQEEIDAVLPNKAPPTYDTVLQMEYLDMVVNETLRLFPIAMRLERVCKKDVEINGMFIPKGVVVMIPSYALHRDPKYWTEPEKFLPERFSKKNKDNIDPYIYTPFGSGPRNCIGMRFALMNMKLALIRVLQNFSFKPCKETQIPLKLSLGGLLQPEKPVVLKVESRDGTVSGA
C-C chemokine receptor type 5, sequence (P51681 whole entry): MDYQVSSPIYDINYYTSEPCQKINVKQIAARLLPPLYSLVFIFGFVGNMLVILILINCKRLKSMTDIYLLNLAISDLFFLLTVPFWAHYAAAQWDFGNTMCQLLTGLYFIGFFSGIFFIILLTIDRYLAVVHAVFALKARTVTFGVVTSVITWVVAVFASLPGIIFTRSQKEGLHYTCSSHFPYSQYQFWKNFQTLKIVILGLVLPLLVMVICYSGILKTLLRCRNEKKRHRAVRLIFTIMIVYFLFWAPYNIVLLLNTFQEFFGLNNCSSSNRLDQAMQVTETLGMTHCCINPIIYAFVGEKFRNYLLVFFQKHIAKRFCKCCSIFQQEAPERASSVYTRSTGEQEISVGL
Cytochrome P450 2D6, sequence (P10635 whole entry): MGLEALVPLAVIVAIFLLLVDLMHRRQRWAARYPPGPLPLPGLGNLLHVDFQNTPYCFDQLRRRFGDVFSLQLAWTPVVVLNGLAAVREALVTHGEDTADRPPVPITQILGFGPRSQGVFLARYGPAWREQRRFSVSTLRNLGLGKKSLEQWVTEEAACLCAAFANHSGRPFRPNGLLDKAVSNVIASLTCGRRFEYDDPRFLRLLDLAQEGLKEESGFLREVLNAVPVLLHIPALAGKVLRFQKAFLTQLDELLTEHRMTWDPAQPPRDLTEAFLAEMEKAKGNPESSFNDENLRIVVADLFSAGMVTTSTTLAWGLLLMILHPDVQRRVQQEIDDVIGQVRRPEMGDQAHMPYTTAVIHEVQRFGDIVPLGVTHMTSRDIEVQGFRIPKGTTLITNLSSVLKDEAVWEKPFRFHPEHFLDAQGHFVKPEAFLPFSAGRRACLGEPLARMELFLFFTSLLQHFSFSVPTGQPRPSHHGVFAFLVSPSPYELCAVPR
Cytochrome P450 2C9, sequence (P11712 whole entry): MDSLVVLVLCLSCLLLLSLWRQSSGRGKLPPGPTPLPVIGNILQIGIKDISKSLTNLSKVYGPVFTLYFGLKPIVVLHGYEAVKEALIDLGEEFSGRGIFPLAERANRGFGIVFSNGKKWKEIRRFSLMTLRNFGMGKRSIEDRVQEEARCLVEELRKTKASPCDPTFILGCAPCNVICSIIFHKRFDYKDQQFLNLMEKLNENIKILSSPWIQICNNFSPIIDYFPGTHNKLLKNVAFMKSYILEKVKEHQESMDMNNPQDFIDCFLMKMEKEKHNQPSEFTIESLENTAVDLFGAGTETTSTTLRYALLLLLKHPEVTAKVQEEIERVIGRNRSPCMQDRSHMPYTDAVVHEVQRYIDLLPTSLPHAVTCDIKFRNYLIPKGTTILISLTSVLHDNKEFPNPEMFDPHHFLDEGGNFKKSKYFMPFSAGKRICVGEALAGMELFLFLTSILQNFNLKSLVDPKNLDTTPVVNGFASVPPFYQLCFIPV
Voltage-gated inwardly rectifying potassium channel KCNH2, sequence (Q12809 whole entry): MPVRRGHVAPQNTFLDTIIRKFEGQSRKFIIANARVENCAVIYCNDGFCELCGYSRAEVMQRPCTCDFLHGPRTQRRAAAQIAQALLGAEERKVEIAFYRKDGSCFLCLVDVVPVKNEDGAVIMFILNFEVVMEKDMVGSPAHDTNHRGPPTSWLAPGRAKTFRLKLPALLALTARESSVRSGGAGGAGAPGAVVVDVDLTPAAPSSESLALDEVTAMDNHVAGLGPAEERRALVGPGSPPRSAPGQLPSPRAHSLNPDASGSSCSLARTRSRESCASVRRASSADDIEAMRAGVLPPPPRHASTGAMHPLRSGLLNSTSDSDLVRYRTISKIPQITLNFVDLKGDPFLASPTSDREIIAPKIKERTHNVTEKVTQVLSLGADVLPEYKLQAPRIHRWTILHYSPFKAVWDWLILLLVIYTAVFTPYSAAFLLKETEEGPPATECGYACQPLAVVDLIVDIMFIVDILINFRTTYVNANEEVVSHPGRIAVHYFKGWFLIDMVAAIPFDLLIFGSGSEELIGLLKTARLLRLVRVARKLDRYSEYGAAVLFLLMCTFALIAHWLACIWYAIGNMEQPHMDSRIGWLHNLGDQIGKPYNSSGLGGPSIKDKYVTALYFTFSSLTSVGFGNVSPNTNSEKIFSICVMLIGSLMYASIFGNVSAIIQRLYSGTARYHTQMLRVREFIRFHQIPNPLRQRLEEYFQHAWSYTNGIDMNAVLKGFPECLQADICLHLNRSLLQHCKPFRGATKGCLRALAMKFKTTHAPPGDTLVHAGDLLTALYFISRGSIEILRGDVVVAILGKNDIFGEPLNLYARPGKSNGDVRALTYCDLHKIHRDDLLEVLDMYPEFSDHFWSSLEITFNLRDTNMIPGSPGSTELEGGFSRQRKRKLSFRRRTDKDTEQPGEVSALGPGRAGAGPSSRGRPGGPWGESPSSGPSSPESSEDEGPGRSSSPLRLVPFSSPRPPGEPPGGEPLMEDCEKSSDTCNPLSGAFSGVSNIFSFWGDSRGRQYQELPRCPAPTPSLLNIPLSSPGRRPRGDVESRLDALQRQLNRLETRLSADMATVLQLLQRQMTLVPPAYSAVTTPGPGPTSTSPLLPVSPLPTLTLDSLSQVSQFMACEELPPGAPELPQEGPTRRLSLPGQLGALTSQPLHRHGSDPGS
Cytochrome P450 2C19, sequence (P33261 whole entry): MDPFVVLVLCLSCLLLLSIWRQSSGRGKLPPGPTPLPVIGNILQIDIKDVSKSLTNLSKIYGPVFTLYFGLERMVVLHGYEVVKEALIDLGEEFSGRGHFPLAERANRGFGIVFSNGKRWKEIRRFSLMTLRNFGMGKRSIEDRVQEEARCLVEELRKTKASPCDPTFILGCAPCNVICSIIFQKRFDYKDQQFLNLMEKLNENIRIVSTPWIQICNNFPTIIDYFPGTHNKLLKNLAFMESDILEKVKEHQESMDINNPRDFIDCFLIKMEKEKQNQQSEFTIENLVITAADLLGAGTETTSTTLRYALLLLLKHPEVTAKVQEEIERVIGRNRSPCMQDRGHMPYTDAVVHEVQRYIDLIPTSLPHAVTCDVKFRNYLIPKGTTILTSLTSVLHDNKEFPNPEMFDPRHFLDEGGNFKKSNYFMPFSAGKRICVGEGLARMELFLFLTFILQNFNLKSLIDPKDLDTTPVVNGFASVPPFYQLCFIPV

Compound: Cc1nnc(C(C)C)n1[C@@H]1C[C@H]2CC[C@@H](C1)N2CC[C@H](NC(=O)C1CCC(F)(F)CC1)c1ccsc1
- IC50 [1]: > 40000 nM
- IC50 [2]: 2.8 nM
- Cmax [3]: 3780 ng/mL
- IC50 [4]: > 25000 nM
- Stability [5]: > 97%
- clearance [6]: 5 mL/min/kg
- half-life [7]: 3.9 h
- IC50 [8]: 4.9 nM
- Cmax [9]: 306 ng/mL
- MRT [10]: 1.6 h
- Stability [11]: > 99%
- AUC(0-inf) [12]: 10900 ng·h/mL
- IC50 [13]: > 25000 nM
- Cmax [14]: 4610 ng/mL
- IC50 [15]: 3 nM
- bioavailability [16]: 14.5%
- Stability [17]: > 97%
- selectivity ratio [18]: 260000
- IC50 [19]: 4.3 nM
- IC50 [20]: 1.5 nM
- IC50 [21]: > 25000 nM
- selectivity ratio [22]: 160000
- selectivity ratio [23]: 69000
- IC50 [24]: 1.2 nM
- IC50 [25]: 2.3 nM
- half-life [26]: 1.7 h
- Tmax [27]: 0.25 h
- Tmax [28]: 0.8 h
- Stability [29]: > 98%
- CC50 at 48 h [30]: > 200000 nM
- AUC(0-inf) [31]: 5520 ng·h/mL
- half-life [32]: 1.6 h
- Tmax [33]: 2 h
- half-life [34]: 1.02 h
- AUC(0-inf) [35]: 1260 ng·h/mL
- selectivity ratio [36]: 220000
- selectivity ratio [37]: 290000
- AUC(0-inf) [38]: 4160 ng·h/mL
- IC50 [39]: > 25000 nM
- IC50 [40]: 3 nM
- Activity [41]: Non-Toxic
- MRT [42]: 0.8 h
- MRT [43]: 2.6 h
- selectivity ratio [44]: 280000
- IC50 [45]: > 25000 nM
- IC50 [46]: > 25000 nM
- MRT [47]: 2.1 h
- Activity [48]: Non-Toxic
- selectivity ratio [49]: > 130000
- clearance [50]: 16.7 mL/min/kg
- bioavailability [51]: 10%

- Stability [5]: 79%
- AUC [52]: 583 ng·h/mL
- AUC [53]: 12.4 ng·h/mL
- Stability [11]: 33%
- Stability [17]: 45%
- Tmax [54]: 0.75 h
- Tmax [55]: 2 h
- Cmax [56]: 256 ng/mL
- Cmax [57]: 5.5 ng/mL
- clearance [58]: 21 mL/min/kg
- F [59]: 40%
Compound: Cc1nnc(C(C)C)n1[C@@H]1C[C@H]2CC[C@@H](C1)N2CC[C@H](NC(=O)C1CCC(F)(F)CC1)c1ccccc1 [MARAVIROC]
- CC50 at 48 h [30]: > 200000 nM
